In US10959432B2, “Microbiocidal oxadiazole derivatives” (Syngenta Participations AG, priority 2016, dated 2021):

Experiments:
[1] = test system: Glomerella laqenarium (Colletotrichum lagenarium); assay: Fungicidal activity against Glomerella lagenarium (Colletotrichum lagenarium) liquid culture / cucumber / preventative (anthracnose); format: cell-based; settings: Colletotrichum orbiculare; 20 ppm in the applied formulation; liquid culture in PDB, 24° C., 3 to 4 days after application; read-out: disease control compared to untreated control (inhibition of growth measured photometrically)
In short: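 Cryostored conidia mixed into potato dextrose broth and added to test compound (from DMSO solution) in microtiter plates. Incubated at 24 °C; growth inhibition read photometrically 3 to 4 days after application, as percent activity versus untreated check.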

[2] = test system: Puccinia recondita f. sp. tritici; assay: Fungicidal activity against Puccinia recondita f. sp. tritici / wheat / leaf disc preventative (brown rust); format: in vivo; settings: foliar, 200 ppm in the applied formulation, wheat leaf segments cv. Kanzler, preventative (inoculated 1 day after application), assessed 7 to 9 days after application, read-out: disease control compared to untreated control leaf disks
In short: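 Wheat cv. Kanzler leaf segments on agar sprayed with formulated compound diluted in water, inoculated with P. recondita spores 1 day later. Incubated at 19C, 75% rh, 12 h light/12 h dark; scored 7 to 9 days after application as percent disease control versus untreated segments. Test rate 200 ppm.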

[3] = test system: Puccinia recondita f. sp. tritici; assay: Fungicidal activity against Puccinia recondita f. sp. tritici / wheat / leaf disc curative (brown rust); format: in vivo; settings: foliar, 200 ppm in the applied formulation, wheat leaf segments cv. Kanzler, curative (applied 1 day after inoculation), assessed 6 to 8 days after application, read-out: disease control compared to untreated control leaf disks
In short: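 Wheat cv. Kanzler leaf segments on agar, spore-inoculated, held dark at 19° C./75% RH; formulated compound in water sprayed 1 day post-inoculation (curative). Incubated 19° C., 75% RH, 12 h light/12 h dark; percent disease control vs untreated scored 6 to 8 days after application.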

Phakopsora pachyrhizi = assay: Fungicidal activity against Phakopsora pachyrhizi / soybean / leaf disc preventative (Asian soybean rust); format: in vivo; settings: foliar, 200 ppm in the applied formulation, soybean leaf disks, preventative (inoculated one day after application), assessed 12 to 14 days after application, read-out: disease control compared to untreated control leaf disks
In short: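 Soybean leaf discs on water agar sprayed with formulated compound diluted in water; spore suspension sprayed on lower leaf surface one day later. Incubated 24-36 h dark at 20° C, 75% rh, then 20° C, 12 h light/day, 75% rh. Percent disease control versus untreated scored 12 to 14 days after application.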

COCC(C)NC(=O)c1ccc(-c2noc(C(F)(F)F)n2)cc1 (centres unmarked) [Compound 3a.37, N-(2-methoxy-1-methyl-ethyl)-4-[5-(trifluoromethyl)-1,2,4-oxadiazol-3-yl]benzamide]
≥ 80%: inhibition at 20 ppm [1] | pest or weed control at 200 ppm [2] | pest or weed control at 200 ppm [3] | pest or weed control at 200 ppm (Phakopsora pachyrhizi)

CCN(CC)C(=O)c1ccc(-c2noc(C(F)(F)F)n2)cc1 [Compound 3a.30, N,N-diethyl-4-[5-(trifluoromethyl)-1,2,4-oxadiazol-3-yl]benzamide]
≥ 80%: inhibition at 20 ppm [1] | pest or weed control at 200 ppm [2] | pest or weed control at 200 ppm [3] | pest or weed control at 200 ppm (Phakopsora pachyrhizi)

CCOCCCNC(=O)c1ccc(-c2noc(C(F)(F)F)n2)cc1F [Compound 3b.24, N-(3-ethoxypropyl)-2-fluoro-4-[5-(trifluoromethyl)-1,2,4-oxadiazol-3-yl]benzamide]
≥ 80%: inhibition at 20 ppm [1] | pest or weed control at 200 ppm [2] | pest or weed control at 200 ppm [3] | pest or weed control at 200 ppm (Phakopsora pachyrhizi)

CCC(O)CNC(=O)c1ccc(-c2noc(C(F)(F)F)n2)cc1F (centres unmarked) [Compound 3b.16, 2-fluoro-N-(2-hydroxybutyl)-4-[5-(trifluoromethyl)-1,2,4-oxadiazol-3-yl]benzamide]
≥ 80%: inhibition at 20 ppm [1] | pest or weed control at 200 ppm [2] | pest or weed control at 200 ppm [3] | pest or weed control at 200 ppm (Phakopsora pachyrhizi)

O=C(NCCO)c1ccc(-c2noc(C(F)(F)F)n2)cc1F [Compound 3b.21, 2-fluoro-N-(2-hydroxyethyl)-4-[5-(trifluoromethyl)-1,2,4-oxadiazol-3-yl]benzamide]
≥ 80%: inhibition at 20 ppm [1] | pest or weed control at 200 ppm [2] | pest or weed control at 200 ppm [3] | pest or weed control at 200 ppm (Phakopsora pachyrhizi)

O=C(NCCCCCl)c1ccc(-c2noc(C(F)(F)F)n2)cc1F [Compound 3b.20, N-(4-chlorobutyl)-2-fluoro-4-[5-(trifluoromethyl)-1,2,4-oxadiazol-3-yl]benzamide]
≥ 80%: inhibition at 20 ppm [1] | pest or weed control at 200 ppm [2] | pest or weed control at 200 ppm [3] | pest or weed control at 200 ppm (Phakopsora pachyrhizi)

CCC(COC)NC(=O)c1ccc(-c2noc(C(F)(F)F)n2)cc1F (centres unmarked) [Compound 3b.11, 2-fluoro-N-[1-(methoxymethyl)propyl]-4-[5-(trifluoromethyl)-1,2,4-oxadiazol-3-yl]benzamide]
≥ 80%: inhibition at 20 ppm [1] | pest or weed control at 200 ppm [2] | pest or weed control at 200 ppm [3] | pest or weed control at 200 ppm (Phakopsora pachyrhizi)

CC(C)NC(=O)c1ccc(-c2noc(C(F)(F)F)n2)cc1F [Compound 3b.27, 2-fluoro-N-isopropyl-4-[5-(trifluoromethyl)-1,2,4-oxadiazol-3-yl]benzamide]
≥ 80%: inhibition at 20 ppm [1] | pest or weed control at 200 ppm [2] | pest or weed control at 200 ppm [3] | pest or weed control at 200 ppm (Phakopsora pachyrhizi)
